Laboratory results reported in patent US20180298344A1, “Realistic Humanized Model of Disease Matrix Environment for Evaluation of Therapeutic Reversal or Cell Fate” (Yale University, priority 2017, published 2018).

What was measured:
[1] = system: human microvascular pericytes (PC) on decellularized healthy lungs; assay: PC on decellularized control human lung scaffolds, TGF-β1 activation with or without nintedanib: histology, α-SMA IHC, tensile testing; assay type: cell-based
Experimental: Lung sections were decellularized as previously described (Sun et al., Am J Physiol Lung Cell Mol Physiol, 2014, 306:L463-475; Petersen et al., Science, 2010, 329:538-541). Briefly, the lung pieces were snap frozen, sliced to 2 mm thickness, and rinsed with PBS containing sodium nitroprusside (SNP). The slices were decellularized with 8 mM CHAPS (Sigma-Aldrich, St Louis, Mo., USA), 1M NaCl, and 25 mM EDTA at 37° C. overnight. The slices were treated with 90 U/mL benzonase nuclease (Sigma) for 1 hour and stored in PBS containing 10% penicillin/streptomycin and 2% Gentamicin at 4° C. until the time of culture. For solubilization, the tissue slices were rinsed with PBS, frozen, and lyophilized. The lyophilized pieces were ground to a fine powder using a tissue grinder and digested with 1 mg/mL pepsin (Sigma) in 0.1 M HCl for 72 hours (DeQuach et al., PLoS One, 2010, 5:e13039).
Samples were fixed in 4% paraformaldehyde for 1 hour, dehydrated, embedded in paraffin, and sectioned into 5μm thick slices. Sections were stained with Masson's Trichrome, picrosirius red, and α-smooth muscle actin (SMA) by the Yale Histology Core Facility.
Decellularized lung samples from control and IPF subjects, as well as polyacrylamide hydrogels of varying crosslinking density, were analyzed using an Instron 5848 with a 10N load cell. Elongation was assessed by cross-head displacement. Strips of 10 mm (length)×1 (width) mm, measured with a digital caliper were affixed to grips and pulled until failure at a strain rate of 1%/sec. For lung samples, parenchymal regions were analyzed, and the pleura was avoided. Hydration of samples with PBS was maintained before and during the mechanical conditioning. Using sample dimensions, engineering stress and strain were calculated using the following equations:
σ=stress, F=Force, A0=initial area, ε=strain, lf=final length, l0=initial length. The Young's Modulus for the tissue was determined by dividing the engineering stress σ, by the engineering strain ε at 20% strain, within the normal range of lung inflation. Mechanical properties of the polyacrylamide hydrogels were also analyzed using a modified model of the Hertz equation using a custom made apparatus (FIG. 3) (Lauridsen et al., Technology, 2014, 2:133).
For short term (7 day) differentiation studies, PC (passage 3-7) were seeded on healthy or IPF lung tissue slices, polyacrylamide hydrogels, or 25 mm glass coverslips (VWR) at 100×10^3 cells per sample and activated with control media (non-activated), or 1 ng/mL TGF-β1 (PeproTech, Rocky Hill, N.J., USA) for 7 days (18, 19). For bleomycin activation, the cells were activated with 1 μg/mL bleomycin sulfate (Cayman Chemical, Ann Arbor, Mich.) for 1 day and the media was replaced with non-activated media for the remaining 6 days (Sava et al., Microcirculation, 2015, 22:54-67; Sterling et al., J Bio Chem, 1983, 258:14438-14444). TGF-β1 and bleomycin concentrations were based on reports consistent with activation of fibroblasts (Sava et al., Microcirculation, 2015, 22:54-67; Maroni and Davis, Bio Reprod, 2012, 87:127). Treatment with CCG-1423 (Sigma) was performed at day 0 for the full 7 days, and labeled as early treatment, or at day 7 and performed for 7 days, and labeled as late treatment. […]

[2] = system: human microvascular pericytes (PC); assay: ELISA of MMPs in supernatant of TGF-β1-activated PC with or without nintedanib; assay type: cell-based; details: nintedanib versus TGF-β1 alone
[3] = system: human microvascular pericytes (PC); assay: Gelatinase zymography of active MMP2 and MMP9 from TGF-β1-activated PC with or without nintedanib; assay type: cell-based
[4] = system: idiopathic pulmonary fibrosis patients; details: IPF patients; cited from earlier work
[5] = system: cultured lung fibroblasts; details: cultured lung fibroblasts in vitro; cited from earlier work
tumor = details: by reducing PC coverage; cited from earlier work

generation of active MMP9 ([3]; P<0.01) | generation of active MMP2 ([3]; P<0.05) | Compound | matrix density and collagen I content ([1]; nintedanib, TGF-β1-activated PC on decellularized healthy lung) | reduction in the number of PC expressing α-SMA ([1]; nintedanib, TGF-β1-activated PC on decellularized healthy lung, IHC, P<0.0001) | elastic modulus of the scaffold ([1]; nintedanib, P=0.44 compared with control lung, P=0.001 compared with TGF-β1 without nintedanib) | expression of MMP10 [2] | MMP13 in supernatant ([2]; P<0.001) | MMP9 in supernatant ([2]; P<0.01) | MMP8 in supernatant ([2]; P<0.05) | decline in forced vital capacity [4] | TGF-β1-induced myofibroblast differentiation and matrix deposition [5] | tumor growth (tumor) | ECM density and collagen I crosslinking ([1]; 28 days of TGF-β1, Masson's trichrome and Picosirius red staining) | increase in the elastic modulus of the scaffold ([1]; 28 days of TGF-β1, PC on decellularized healthy lung, P=0.001)
enhanced | enhanced | COC(=O)c1ccc2c(c1)NC(=O)/C2=C(\Nc1ccc(N(C)C(=O)CN2CCN(C)CC2)cc1)c1ccccc1 [nintedanib] | reduction | 90.1% | reversion of the elastic modulus to baseline levels | did not increase | substantial increases | substantial increases | substantial increases | reducing the decline in forced vital capacity | oppose | inhibit tumor growth |  | 
 |  | TGF-β1: transforming growth factor (TGF)-β1, fibrotic activator, used at 1 ng/mL |  |  |  |  |  |  |  |  |  |  | increased | 8.6 fold
